From patent USRE47689E1, “Compounds for treating spinal muscular atrophy” (PTC Therapeutics, Inc., priority 2011, dated 2019)

Tests used:
[1] = system: SMN2 minigene (full length SMN2 minigene mRNA containing SMN2 exon 7); experiment: SMN2 minigene mRNA splicing RT-qPCR assay in cultured cells; assay type: cell-based, human; details: Homo sapiens, HEK293-H; HEK293H cells stably transfected with SMN2-A minigene; 24 hours; 7-point concentration curve; 1.5-fold relative to vehicle-treated cells; read-out: EC1.5x for production of full length SMN2 mRNA
Summary of the method: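 Read-out: full-length (exon 7-included) SMN2 minigene mRNA by multiplex RT-qPCR with GAPDH, efficiency-corrected (1+E)^−Ct, GAPDH-normalized and divided by vehicle. Stably transfected HEK293H cells, 24 h compound exposure, duplicates per concentration. Value is EC1.5x, reported as star ranges.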

Smn protein = Smn protein assay in cultured cells (SMN HTRF); assay type: cell-based, human; details: 48 hours; for maximum fold (Fold) increase of Smn protein: SMA patient fibroblast cells, 7-point concentration data, fold increase relative to vehicle control (SMN HTRF); for EC1.5x (concentration giving 1.5-fold Smn protein increase): SMA Type 1 patient fibroblast cells (GM03813), 7-point concentration curve, SMN HTRF, concentration producing 1.5 times Smn protein vs DMSO vehicle control, read-out: EC1.5x for Smn protein expression
Summary of the method: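 Lysates in RIPA with protease inhibitors are incubated overnight at room temperature with HTRF anti-SMN antibodies. EC1.5x is derived from fold increase in ΔF over vehicle.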

For `Cc1ccc(-c2cc3ccc(N4CCN(C)CC4)cc3oc2=O)cn1` [Compound 164, 7-(4-methylpiperazin-1-yl)-3-(6-methylpyridin-3-yl)-2H-chromen-2-one], the EC (1.5-fold) [1] was 1 to 3 µM, the “maximum fold (Fold) increase of Smn protein” value (shortened to “maximum fold (Fold) increase”) (Smn protein) was “* (maximum fold increase of ≤1.2)” and the melting point was 158 to 160 °C.
In the case of `Cc1ccn2cc(-c3cc4ccc(N[C@@H]5CCNC5)cc4oc3=O)nc2c1` [Compound 496, 3-(7-methylimidazo[1,2-a]pyridin-2-yl)-7-[(3R)-pyrrolidin-3-ylamino]-2H-chromen-2-one], the EC (1.5-fold) [1] is reported as 0.3 to 1 µM, the “maximum fold (Fold) increase” value (Smn protein) is reported as “* (maximum fold increase of ≤1.2)” and the melting point is reported as 244 to 254 °C.
With `CN1CCCN(c2ccc3cc(-c4nc5ccccc5s4)c(=O)oc3c2)CC1` [Cpd 145, 3-(1,3-benzothiazol-2-yl)-7-(4-methyl-1,4-diazepan-1-yl)-2H-chromen-2-one] the EC (1.5-fold) [1] was 0.1 to 0.3 µM, the “maximum fold (Fold) increase” value (Smn protein) was “** (fold increase between >1.2 and ≤1.35)” and the melting point was 217 to 220 °C.
With `Cc1cn2cc(-c3cc4ccc(N5CC[C@H](CN)C5)cc4oc3=O)nc2c(C)n1` [Compound 950, 7-[(3R)-3-(aminomethyl)pyrrolidin-1-yl]-3-(6,8-dimethylimidazo[1,2-a]pyrazin-2-yl)-2H-chromen-2-one] the EC (1.5-fold) [1] was 0.1 to 0.3 µM, the EC1.5x (concentration giving 1.5-fold Smn protein increase) (Smn protein) was 1000 to 3000 nM and the “maximum fold (Fold) increase” value (Smn protein) was “*** (fold increase between >1.35 and ≤1.5)”. It also gave a melting point of 196 to 198 °C.
For `COc1cc(OC)cc(-c2cc3ccc(N4CCN[C@H](C)C4)cc3oc2=O)c1` [Compound 412, 3-(3,5-dimethoxyphenyl)-7-[(3R)-3-methylpiperazin-1-yl]-2H-chromen-2-one], the EC (1.5-fold) [1] was 3 to 30 µM, the “maximum fold (Fold) increase” value (Smn protein) was “* (maximum fold increase of ≤1.2)” and the melting point was 148 to 150 °C.
With `Cc1cn2cc(-c3cc4c(F)cc(N5CCCN(C)CC5)cc4oc3=O)nc2c(C)n1` [Compound 614, 3-(6,8-dimethylimidazo[1,2-a]pyrazin-2-yl)-5-fluoro-7-(4-methyl-1,4-diazepan-1-yl)-2H-chromen-2-one] the EC (1.5-fold) [1] was < 0.1 µM, the EC1.5x (concentration giving 1.5-fold Smn protein increase) (Smn protein) was < 300 nM and the “maximum fold (Fold) increase” value (Smn protein) was “***** (fold increase >1.65)”. The melting point was 223 to 225 °C.
For `C[C@H]1CN(c2ccc3cc(-c4cn5cccc(Cl)c5n4)c(=O)oc3c2)CCN1C` [Compound 339, 3-(8-chloroimidazo[1,2-a]pyridin-2-yl)-7-[(3S)-3,4-dimethylpiperazin-1-yl]-2H-chromen-2-one], the EC (1.5-fold) [1] was 0.1 to 0.3 µM, the “maximum fold (Fold) increase” value (Smn protein) was “* (maximum fold increase of ≤1.2)” and the melting point was 184 to 186 °C.
In the case of `Cc1cn2cc(-c3cc4ccc(CCCN5CCNCC5)cc4oc3=O)nc2c(C)n1` [Compound 859, 3-(6,8-dimethylimidazo[1,2-a]pyrazin-2-yl)-7-[3-(piperazin-1-yl)propyl]-2H-chromen-2-one], the EC (1.5-fold) [1] is reported as 0.1 to 0.3 µM, the EC1.5x (concentration giving 1.5-fold Smn protein increase) (Smn protein) is reported as 300 to 1000 nM and the “maximum fold (Fold) increase” value (Smn protein) is reported as “**** (fold increase between >1.5 and ≤1.65)”. For the same molecule, the melting point was 145 to 153 °C.
For `Cc1cn2cc(-c3cc4ccc(N5C[C@H]6CNC[C@H]6C5)cc4oc3=O)nc2cn1` [Compound 718, 7-[(3aR,6aS)-hexahydropyrrolo[3,4-c]pyrrol-2(1H)-yl]-3-(6-methylimidazo[1,2-a]pyrazin-2-yl)-2H-chromen-2-one], the EC (1.5-fold) [1] was < 0.1 µM, the EC1.5x (concentration giving 1.5-fold Smn protein increase) (Smn protein) was < 300 nM and the “maximum fold (Fold) increase” value (Smn protein) was “**** (fold increase between >1.5 and ≤1.65)”. The melting point was 282 to 292 °C.
For `CN(C)[C@H]1CCN(c2ccc3cc(-c4cn5cccc(Cl)c5n4)c(=O)oc3c2)C1` [Compound 122, 3-(8-chloroimidazo[1,2-a]pyridin-2-yl)-7-[(3S)-3-(dimethylamino)pyrrolidin-1-yl]-2H-chromen-2-one], the EC (1.5-fold) [1] was 1 to 3 µM, the “maximum fold (Fold) increase” value (Smn protein) was “* (maximum fold increase of ≤1.2)” and the melting point was 238 to 241 °C.
